Laboratory results: ChEMBL document CHEMBL1143058, “Evaluation of a diverse set of potential P1 carboxylic acid bioisosteres in hepatitis C virus NS3 protease inhibitors” (Bioorg Med Chem, 2007)

What was measured:
[1] = Inhibition of HCV NS3 protease in presence of pH 7.5 HEPES buffer; design: species or system Hepacivirus hominis
Hepatitis C virus = experiment: Inhibition of HCV by subgenomic HCV replication assay; assay type: functional, organism-based, Hepacivirus hominis
[2] = Inhibition of HCV NS3 protease in presence of pH 6.0 buffer; design: species or system Hepacivirus hominis
[3] = Inhibition of HCV NS3 protease in presence of pH 8.0 buffer; design: species or system Hepacivirus hominis
[4] = Inhibition of HCV NS3 protease in presence of pH 7.0 buffer; design: species or system Hepacivirus hominis

| Structure (SMILES) | Ki [1] [nM] | EC50 (Hepatitis C virus) [nM] | Ki [2] [nM] | Ki [3] [nM] | Ki [4] [nM] |
| --- | --- | --- | --- | --- | --- |
| C=C[C@@H]1C[C@]1(NC(=O)[C@@H]1C[C@@H](Oc2cc(-c3ccccc3)nc3cc(OC)ccc23)CN1C(=O)[C@@H](NC(=O)OC(C)(C)C)C(C)(C)C)c1nnn[nH]1 | 214 | 2800 | – | – | – |
| C=C[C@@H]1C[C@]1(NC(=O)[C@@H]1C[C@@H](Oc2cc(-c3ccccc3)nc3cc(OC)ccc23)CN1C(=O)[C@@H](NC(=O)OC(C)(C)C)C(C)(C)C)C(=O)NNC(=O)c1ccccc1 | 1600 | > 10000 | – | – | – |
| C=C[C@@H]1C[C@]1(NC(=O)[C@@H]1C[C@@H](Oc2cc(-c3ccccc3)nc3cc(OC)ccc23)CN1C(=O)[C@@H](NC(=O)OC(C)(C)C)C(C)(C)C)c1nnc(-c2ccccc2)o1 | 2200 | > 10000 | – | – | – |
| C=C[C@@H]1C[C@]1(NC(=O)[C@@H]1C[C@@H](Oc2cc(-c3ccccc3)nc3cc(OC)ccc23)CN1C(=O)[C@@H](NC(=O)OC(C)(C)C)C(C)(C)C)C(=O)NO | 425 | 3800 | – | – | – |
| C=C[C@@H]1C[C@]1(NC(=O)[C@@H]1C[C@@H](Oc2cc(-c3ccccc3)nc3cc(OC)ccc23)CN1C(=O)[C@@H](NC(=O)OC(C)(C)C)C(C)(C)C)C(=O)NS(=O)(=O)c1ccccc1 | 0.34 | 6 | – | – | – |
| C=C[C@@H]1C[C@]1(NC(=O)[C@@H]1C[C@@H](Oc2cc(-c3ccccc3)nc3cc(OC)ccc23)CN1C(=O)[C@@H](NC(=O)OC(C)(C)C)C(C)(C)C)C(=O)Nc1nccs1 | 821 | > 10000 | 7.7 | 343 | 294 |
| C=C[C@@H]1C[C@]1(NC(=O)[C@@H]1C[C@@H](Oc2cc(-c3ccccc3)nc3cc(OC)ccc23)CN1C(=O)[C@@H](NC(=O)OC(C)(C)C)C(C)(C)C)C(=O)NS(=O)(=O)c1ccc(C)cc1 | 0.22 | 6 | 0.006 | 0.39 | 0.056 |
| C=C[C@@H]1C[C@]1(NC(=O)[C@@H]1C[C@@H](Oc2cc(-c3ccccc3)nc3cc(OC)ccc23)CN1C(=O)[C@@H](NC(=O)OC(C)(C)C)C(C)(C)C)C(=O)NCC(F)(F)F | 1690 | > 2000 | 71 | 734 | 349 |
| C=C[C@@H]1C[C@]1(NC(=O)[C@@H]1C[C@@H](Oc2cc(-c3ccccc3)nc3cc(OC)ccc23)CN1C(=O)[C@@H](NC(=O)OC(C)(C)C)C(C)(C)C)C(=O)NNCc1ccccc1 | 1100 | > 10000 | – | – | – |
| C=C[C@@H]1C[C@]1(NC(=O)[C@@H]1C[C@@H](Oc2cc(-c3ccccc3)nc3cc(OC)ccc23)CN1C(=O)[C@@H](NC(=O)OC(C)(C)C)C(C)(C)C)C(=O)NNS(=O)(=O)c1ccccc1 | 140 | 1600 | – | – | – |
| C=C[C@@H]1C[C@]1(NC(=O)[C@@H]1C[C@@H](Oc2cc(-c3ccccc3)nc3cc(OC)ccc23)CN1C(=O)[C@@H](NC(=O)OC(C)(C)C)C(C)(C)C)C(=O)NC#N | 6 | 1200 | 0.14 | 10.8 | 0.51 |
| C=C[C@@H]1C[C@]1(NC(=O)[C@@H]1C[C@@H](Oc2cc(-c3ccccc3)nc3cc(OC)ccc23)CN1C(=O)[C@@H](NC(=O)OC(C)(C)C)C(C)(C)C)C(=O)NNc1ccccc1 | 560 | > 10000 | 28 | 287 | 113 |
| C=C[C@@H]1C[C@]1(NC(=O)[C@@H]1C[C@@H](Oc2cc(-c3ccccc3)nc3cc(OC)ccc23)CN1C(=O)[C@@H](NC(=O)OC(C)(C)C)C(C)(C)C)C(=O)O | 20 | 140 | 0.12 | 8.7 | 0.68 |
| C=C[C@@H]1C[C@]1(NC(=O)[C@@H]1C[C@@H](Oc2cc(-c3ccccc3)nc3cc(OC)ccc23)CN1C(=O)[C@@H](NC(=O)OC(C)(C)C)C(C)(C)C)C(=O)N[S+]([O-])c1ccc(C)cc1 (stereo not given in full) | 9 | 1800 | – | – | – |
| C=C[C@@H]1C[C@]1(NC(=O)[C@@H]1C[C@@H](Oc2cc(-c3ccccc3)nc3cc(OC)ccc23)CN1C(=O)[C@@H](NC(=O)OC(C)(C)C)C(C)(C)C)C(=O)NNC(=O)Cc1ccccc1 | 880 | > 10000 | – | – | – |
| C=C[C@@H]1C[C@]1(NC(=O)[C@@H]1C[C@@H](Oc2cc(-c3ccccc3)nc3cc(OC)ccc23)CN1C(=O)[C@@H](NC(=O)OC(C)(C)C)C(C)(C)C)C(=O)NS(=O)(=O)C1CC1 | 0.058 | 0.9 | – | – | – |
